Results reported in paper PMC10949195, “Exponential Combination of a and e/g Intracellular Peptide Libraries Identifies a Selective ATF3 Inhibitor” (ACS Chemical Biology, 2024).

Experiments:
ATF3 [1] = biological target: T1, ATF3 (Homo sapiens, UniProt P18847); assay: CD spectra of ATF3-ATF3W_aeg complex; assay type: binding; details: 1:1 stoichiometry with ATF3, 150 μM total peptide, pH 7.0
T1 construct: We focus on the selective targeting of the ATF3 leucine zipper dimerization domain using intracellular peptide library screening; made in house; host or cells: chemical solid-phase peptide synthesis (no expression host)
T1 sequence (P18847 110-143): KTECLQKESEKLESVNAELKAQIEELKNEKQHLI
Protocol: ATF3, ATF3W_a, and ATF3W_eg and combined hit sequence ATF3W_aeg were synthesized using solid phase peptide synthesis, purified by RP-HPLC, and verified for correct mass using ESI-MS (Figure S3), after which circular dichroism (CD) was used to characterize both ATF3 and antagonist peptides for helicity and interactions as homodimers, as well as heterodimers with the ATF3 target. Global secondary analysis of both homodimeric and heterodimeric systems was carried out at a total peptide concentration of 150 μM to keep equimolar concentrations of each component helix. The 222/208 ratio was used to provide evidence on whether the helices were likely to be monomeric or adopt quaternary structure.[13] […] Furthermore, incubation of ATF3 with ATF3W_aeg elicited a significant conformational change in the sample relative to the average of the component peptides (Figure 6d black line vs red hash), providing compelling evidence for an interaction.[14] In addition, the component PCA hits were examined using CD.
Figure 6 CD spectra data indicates a ATF3-ATF3W_aeg interaction. […] Spectra were next measured at 20 and 5 °C and again post-thermal denaturation (PM 20 °C to establish reversible that unfolding is fully reversible) at a total peptide concentration of 150 μM and presented as mean residue ellipticity (MRE). […]

ATF3 [2] = biological target: T1, ATF3; assay: Size-exclusion chromatography of ATF3-ATF3W_aeg mixture; assay type: binding; details: Superdex Peptide 10/300 GL, RT; 20 μM total peptide
Protocol: During SEC experiments, monomeric ATF3 (Figure 8, blue line) and ATF3W_aeg (Figure 8, green line) eluted at approximately 20 min. These contrast with the dimeric profile observed for ATF3-ATF3W_aeg (Figure 8, black line), which occurred at approximately 19 min. For all samples, elution profiles were consistent with either a validated monomer or dimer elution pattern.[15]
Figure 8 SEC profiles indicate that ATF3W_aeg binds ATF3. Shown are size exclusion chromatography profiles for interacting peptides. The peak at approx 19 min for the ATF3-ATF3W_aeg mixture (black trace) represents a dimeric sample while ATF3 (blue trace) and ATF3W_aeg (green trace) generate a peak at approx 20 min, indicating the presence of a monomer. These experiments, undertaken at a total peptide concentration of 20 μM, provide additional evidence for selectivity of the ATF3-ATF3W_aeg interaction. Arrows show controls from previous peptides with elution times for a 32 mer Fos monomeric peptide (20 min) and a 37 mer cJun–FosW heterodimer (18.5 min).[15]
Size-exclusion experiments were performed at RT using a Superdex Peptide 10/300 GL column (GE Healthcare Life Sciences) as described previously.[23]

[3] = Peptide permeability assay (PAMPA); assay type: in vitro ADME
Description: Fig S4: CD data for ATF3 interacting with ATF3W-a and ATF3W-eg.
Peptide permeability assay: The PAMPA assay measures permeability across an artificial membrane. This method provides an in vitro model for passive diffusion. Passive diffusion is an important factor in determining transport through the gastrointestinal tract, penetration of the blood brain barrier, as well as transport across cell membranes. Permeability can also be influenced by several other mechanisms including paracellular transport and active uptake or efflux which are not assessed in PAMPA. Therefore, PAMPA provides a simplistic approach to permeability by only measuring a single mechanism. […]
Peptide permeability assay: To evaluate the peptide permeability, the BD™ pre-coated PAMPA plate system was employed. […] The peptide concentrations in both plates were determined by UV spectroscopy after the assembly plate system were incubated at room temperature for 5 hours, and the peptide permeability and mass retention were calculated by using the PAMPA plate system formula which recommended in the manufacture manual. […]
Serum stability: The quantity of peptide detected by LC-MS is plotted relative to the starting point […]
Fig S5: Shown are serum stability of ATF3W-aeg. The quantity of peptide detected by LC-MS is plotted […]

In the case of “Ac-ELAALEQKAYALKQENAALEKEVAALEQKIAALK-NH2 (N-terminus and C-terminus assumed) [ATF3W_aeg]”, the “222/208 ratio of ATF3-ATF3W_aeg complex” value (ATF3 [1]) is reported as 0.94, the “fractional helicity (fH) of ATF3-ATF3W_aeg complex” value (ATF3 [1]) is reported as roughly 68% and the “SEC elution time of ATF3-ATF3W_aeg mixture” value (ATF3 [2]) is reported as “approximately 19 min”. For the same substance, the “oligomeric state of ATF3-ATF3W_aeg interaction by SEC” value (ATF3 [2]) was “exclusively dimeric”, the PAMPA mass retention ([3]; BD pre-coated PAMPA plate system, 200uM peptide in PBS, room temperature, 5 hours, UV spectroscopy) was 5.8% and the PAMPA permeability category ([3]; category by Log(Permeability) larger than -6, industry standard in BD PAMPA manual) was “high permeability”.
